The source of these data is PMC12120644, “Modulation of the Inflammatory Process through the Control of Cyclooxygenase Using Peptides Obtained from Lithobates Catesbeianus Identified by Molecular Docking” (ACS Omega, 2025).

In one test the test system is total cyclooxygenase. In words: COX inhibition assay (total COX activity, LPS-stimulated RAW 264.7). In kind it is cell-based. The following applies: RAW 264.7 stimulated with LPS 1 μg/mL for 4 h, peptide 1 mM, chemiluminescent enzymatic kit (Cayman), vs LPS control, t test P < 0.05. How it is done: The in vitro total cyclooxygenase inhibition was evaluated using a chemiluminescent enzymatic kit (Cayman Chemical, MI), according to the manufacturer’s protocol. The RAW 264.7 cell line was purchased from the American Type Culture Collection (Rockville, MD) and routinely grown in DMEM supplemented with 10% fetal bovine serum (FBS). The cells were subcultured every 3 to 4 days at 1 × 10^8 cells/mL. The positive control group was exposed to lipopolysaccharide (LPS) at 1 μg/mL for 4 h to induce inflammation. Cells were collected and centrifuged at 600g for 10 min at 4 °C. The supernatant was carefully removed and cells were resuspended in 2 mL of DMEM, resulting in 1 × 10^8 cells/mL.
4 Effect of SGHPGAMGPVGPR (P1), IGPAGSAGSR (P2), GPSGPAGARGDK (P3), and […] (P4) peptides on the total COX activity. The RAW 264.7 cells were subcultured at 1 × 10^8 cells/mL density and stimulated with LPS at 1 μg/mL for 4 h. Cells were collected by centrifugation at a speed of 2.000 rpm for 10 min at 4 °C and were resuspended in DMEM. After that, cells were treated with the peptides, and ELISA was performed. Significant by the t test (P < 0.05). CTRL: control (cells stimulated with LPS).

A further test has as its system IL-6. In words: IL-6 immunoassay (ELISA), LPS-stimulated macrophages. The following applies: LPS 1 μg/mL for 4 h, 1 mM the only significant of 0.025, 0.05, 0.5, and 1 mM, ELISA 405 nm. In kind it is cell-based, murine. The protocol:
Quantification of IL-6 was determined using the Murine Mini ABTS IL-6 ELISA kit (PeproTech, Cat No. 900-M50), according to the manufacturer’s instructions. The absorbance was measured at 405 nm, and IL-6 concentrations were quantified based on the IL-6 standard curve (0−4000 pg/mL).
5 IL-6 concentration (pg/mL) in macrophages treated at 0.025, 0.05, 0.5, and 1.0 mM peptide 1 and exposure to 1 μg/mL LPS for 4 h. Ctrl-: Negative control (cells + DMEM); Ctrl+: Positive control 1 (cells + DMEM+ and LPS); P1 (cells + DMEM + peptide at different concentrations + LPS). Data (n = 3) are expressed as mean and standard error.
(An ELISA detects its analyte on a solid surface through an enzyme-linked reagent.)

“Also recorded” adds a separate entry of the source. No end group written: not given here.

For the sequence SGHPGAMGPVGPR [Peptide P1], the “total COX activity (in words)” value with total cyclooxygenase is given as “effectively inhibiting total COX activity; also recorded: only peptide P1 exhibited an inhibitory capacity on the total COX activity; also recorded: only P1 demonstrated the ability to reduce the total COX activity”; in the test with total cyclooxygenase (listed as peptide 1) it was “best results in decreasing the cells’ total COX”. Further, the “IL-6 levels (in words)” value is “downregulating IL-6 expression; also recorded: significantly downregulated IL-6 levels in a dose-dependent manner” with IL-6 (n = 3); “best results in decreasing the cells’ total COX and IL-6 cytokines” in the test on IL-6 (n = 3, listed as peptide 1).
